Experiment [1] has as its system Candida albicans. As to the kind of experiment: Induction of apoptosis in Candida albicans ATCC SC5314 assessed as mid apoptotic cells incuabted for 24 hrs by V-FITC/PI staining based flow cytometry analysis (reference value: 1.09%). The format is functional. Background: Flow cytometry measures light scatter and fluorescence of single cells or particles in a stream.

Experiment [2] relates to Candida tropicalis. Briefly: Antifungal activity against Candida tropicalis ATCC 1369 assessed as fungal growth inhibition measured after 72 hrs by double dilution method. The class given is functional.
Experiment [3] deals with Candida albicans. As to the kind of experiment: Induction of mitochondrial membrane potential loss in Candida albicans ATCC SC5314 assessed as normal cells at 1 umol/ml incubated for 24 hrs by JC-1 staining based flow cytometry assay (reference value: 95.26%). The format is functional. Particulars: dose 1 µmol/L, at 1 µM.
The subject of experiment [4] is Pichia kudriavzevii. As to the kind of experiment: Antifungal activity against Candida krusei ATCC 6258 assessed as fungal growth inhibition measured after 72 hrs by double dilution method. The class given is functional.
Experiment [5] has as its system Cryptococcus neoformans. As to the kind of experiment: Antifungal activity against Cryptococcus neoformans ZKCC 2209 assessed as fungal growth inhibition measured after 72 hrs by double dilution method. The format is functional.
In experiment [6] the test system is Candida albicans. Briefly: Antifungal activity against Candida albicans ATCC SC5314 assessed as fungal growth inhibition measured after 72 hrs by double dilution method. The format is functional.
Experiment [7] deals with Candida albicans. As to the kind of experiment: Induction of apoptosis in Candida albicans ATCC SC5314 assessed as necrotic cells incuabted for 24 hrs by V-FITC/PI staining based flow cytometry analysis (reference value: 1.77%). The format is functional.
Experiment [8] relates to Candida albicans. As to the kind of experiment: Induction of mitochondrial membrane potential loss in Candida albicans ATCC SC5314 assessed as polarized cells at 1 umol/ml incubated for 24 hrs by JC-1 staining based flow cytometry assay (reference value: 0.69%). The class given is functional. Particulars: dose 1 µmol/L, at 1 µM.
Experiment [9] relates to Candida albicans. As to the kind of experiment: Induction of apoptosis in Candida albicans ATCC SC5314 assessed as late apoptotic cells incuabted for 24 hrs by V-FITC/PI staining based flow cytometry analysis (reference value: 0.36%). The class given is functional.
Experiment [10] concerns Candida albicans. As to the kind of experiment: Induction of mitochondrial membrane potential loss in Candida albicans ATCC SC5314 assessed as depolarized cells at 1 umol/ml incubated for 24 hrs by JC-1 staining based flow cytometry assay (reference value: 0.76 to 3.29%). The format is functional. To be noted: dose 1 µmol/L, at 1 µM.
In experiment [11] the test system is Candida albicans. Briefly: Induction of apoptosis in Candida albicans ATCC SC5314 assessed as normal cells incuabted for 24 hrs by V-FITC/PI staining based flow cytometry analysis (reference value: 96.78%). The class given is functional.
Experiment [12] relates to Aspergillus fumigatus. As to the kind of experiment: Antifungal activity against Aspergillus fumigatus KM8001 assessed as fungal growth inhibition measured after 72 hrs by double dilution method. The format is functional.
The subject of experiment [13] is Candida albicans. As to the kind of experiment: Antifungal activity against Candida albicans ATCC SC5314 assessed as induction of ROS production by measuring fluorescence intensity incubated for 12 hrs by KGT010-1 staining based fluorescence microscopy. The format is functional, organism-based.
The target in experiment [14] is Prostaglandin G/H synthase 1 (Homo sapiens, UniProt P23219). As to the kind of experiment: Inhibition of COX-1 (unknown origin) using arachidonic acid as substrate preincubated for 10 mins followed by substrate addition and measured after 2 mins by immunoassay.
Chain of Prostaglandin G/H synthase 1 (P23219 whole entry): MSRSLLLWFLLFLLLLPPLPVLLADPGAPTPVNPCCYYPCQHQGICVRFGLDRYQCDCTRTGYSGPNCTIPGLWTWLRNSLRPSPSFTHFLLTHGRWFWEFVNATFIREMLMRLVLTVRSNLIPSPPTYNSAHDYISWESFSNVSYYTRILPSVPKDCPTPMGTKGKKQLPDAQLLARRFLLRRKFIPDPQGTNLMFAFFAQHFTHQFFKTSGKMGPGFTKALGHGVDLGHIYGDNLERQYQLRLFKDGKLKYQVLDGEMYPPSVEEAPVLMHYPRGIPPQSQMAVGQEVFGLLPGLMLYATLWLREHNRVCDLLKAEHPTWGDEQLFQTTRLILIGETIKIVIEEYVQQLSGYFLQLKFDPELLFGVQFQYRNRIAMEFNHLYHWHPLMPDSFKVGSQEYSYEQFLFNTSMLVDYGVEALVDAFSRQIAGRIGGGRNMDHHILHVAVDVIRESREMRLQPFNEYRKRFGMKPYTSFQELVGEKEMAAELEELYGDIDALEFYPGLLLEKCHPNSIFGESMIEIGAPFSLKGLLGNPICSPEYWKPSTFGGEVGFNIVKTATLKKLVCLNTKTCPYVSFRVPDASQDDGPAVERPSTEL
For experiment [15], the system named is Candida albicans. Briefly: Antifungal activity against fluconazole -resistant Candida albicans 904 assessed as fungal growth inhibition measured after 72 hrs by double dilution method. The format is functional.
Experiment [16] has as its target T1, Prostaglandin G/H synthase 2 (Homo sapiens, UniProt P35354).
T1 sequence (P35354 whole entry): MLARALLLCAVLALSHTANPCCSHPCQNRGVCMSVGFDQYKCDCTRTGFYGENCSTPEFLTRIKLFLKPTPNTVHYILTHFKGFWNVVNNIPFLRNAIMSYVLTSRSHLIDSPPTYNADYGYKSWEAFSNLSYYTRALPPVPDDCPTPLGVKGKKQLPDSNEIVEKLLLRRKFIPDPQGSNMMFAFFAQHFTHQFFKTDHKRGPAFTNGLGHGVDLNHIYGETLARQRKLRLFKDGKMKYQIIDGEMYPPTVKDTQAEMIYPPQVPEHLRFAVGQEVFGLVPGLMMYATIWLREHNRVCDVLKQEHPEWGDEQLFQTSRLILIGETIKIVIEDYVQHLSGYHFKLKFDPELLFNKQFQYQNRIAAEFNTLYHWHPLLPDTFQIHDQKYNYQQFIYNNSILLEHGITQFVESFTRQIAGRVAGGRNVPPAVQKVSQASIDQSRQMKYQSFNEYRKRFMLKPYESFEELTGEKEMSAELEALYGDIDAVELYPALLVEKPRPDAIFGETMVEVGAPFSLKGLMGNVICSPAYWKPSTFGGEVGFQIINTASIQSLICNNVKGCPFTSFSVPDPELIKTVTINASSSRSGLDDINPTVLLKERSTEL
Briefly: Inhibition of COX-2 (unknown origin) using arachidonic acid as substrate preincubated for 10 mins followed by substrate addition and measured after 2 mins by immunoassay.

Experiment [17] has as its system Candida albicans. Briefly: Antifungal activity against Candida albicans ATCC SC5314 assessed as decrease in fungal cell density measured immediately by fluorescence microscopy (reference value: 126%). The class given is functional. On the set-up: scale not given: the % may be the effect or the level left.
For experiment [18], the target named is Lanosterol 14-alpha demethylase (Candida albicans (strain SC5314 / ATCC MYA-2876) (Yeast), UniProt P10613). Briefly: Inhibition of CYP51 in Candida albicans SC5314 using Eburicol as substrate preincubated for 20 mins followed by substrate addition and measured after 4 mins by HPLC analysis. The format is single protein.
Chain of Lanosterol 14-alpha demethylase (P10613 whole entry): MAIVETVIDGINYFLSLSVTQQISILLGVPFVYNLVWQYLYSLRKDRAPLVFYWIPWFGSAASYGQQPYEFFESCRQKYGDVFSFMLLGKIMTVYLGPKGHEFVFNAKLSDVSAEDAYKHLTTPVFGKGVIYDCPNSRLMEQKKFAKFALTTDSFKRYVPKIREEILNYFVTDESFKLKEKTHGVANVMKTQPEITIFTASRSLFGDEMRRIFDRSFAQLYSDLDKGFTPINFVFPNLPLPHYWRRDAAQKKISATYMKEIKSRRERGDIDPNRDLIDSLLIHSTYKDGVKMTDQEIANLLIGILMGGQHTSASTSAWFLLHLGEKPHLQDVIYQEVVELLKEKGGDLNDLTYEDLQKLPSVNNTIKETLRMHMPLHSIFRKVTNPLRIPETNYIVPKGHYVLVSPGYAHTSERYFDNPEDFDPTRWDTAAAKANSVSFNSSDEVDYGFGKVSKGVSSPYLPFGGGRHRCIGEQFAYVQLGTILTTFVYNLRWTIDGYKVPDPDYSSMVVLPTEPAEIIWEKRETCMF
For experiment [19], the system named is Candida albicans. Briefly: Antifungal activity against fluconazole -resistant Candida albicans 901 assessed as fungal growth inhibition measured after 72 hrs by double dilution method. The class given is functional.
Experiment [20] deals with Candida albicans. As to the kind of experiment: Antifungal activity against Candida albicans ATCC SC5314 assessed as decrease in fungal cell density measured at 48 hrs by fluorescence microscopy (reference value: 258%). The format is functional. Details: scale not given: the % may be the effect or the level left.
The subject of experiment [21] is Candida albicans. Briefly: Antifungal activity against fluconazole -resistant Candida albicans 632 assessed as fungal growth inhibition measured after 72 hrs by double dilution method. The format is functional.
In experiment [22] the test system is Candida albicans. As to the kind of experiment: Antifungal activity against fluconazole- resistant Candida albicans 17# assessed as fungal growth inhibition measured after 72 hrs by double dilution method. The class given is functional.
Experiment [23] deals with Candida albicans. Briefly: Antifungal activity against fluconazole -resistant Candida albicans CaR assessed as fungal growth inhibition measured after 72 hrs by double dilution method. The class given is functional.
In experiment [24] the test system is Candida albicans. As to the kind of experiment: microbe, parasite or virus in culture. Particulars: Candida albicans, 632, 72 h.
Description: Antifungal activity against fluconazole- resistant Candida albicans 632 assessed as fungal growth inhibition measured after 72 hrs in presence of fluconazole by double dilution method
For experiment [25], the system named is Candida albicans. As to the kind of experiment: Antifungal activity against fluconazole- resistant Candida albicans 17# assessed as fungal growth inhibition measured after 72 hrs in presence of fluconazole by double dilution method.
Experiment [26] concerns Aspergillus fumigatus. As to the kind of experiment: Antifungal activity against Aspergillus fumigatus KM8001 assessed as fungal growth inhibition measured after 72 hrs in presence of fluconazole by double dilution method. To be noted: KM8001, 72 h.
In experiment [27] the test system is Cryptococcus neoformans. As to the kind of experiment: microbe, parasite or virus in culture. Particulars: ZKCC 2209, 72 h.
Description: Antifungal activity against Cryptococcus neoformans ZKCC 2209 assessed as fungal growth inhibition measured after 72 hrs in presence of fluconazole by double dilution method
Experiment [28] relates to Candida albicans. As to the kind of experiment: Antifungal activity against fluconazole- resistant Candida albicans CaR assessed as fungal growth inhibition measured after 72 hrs in presence of fluconazole by double dilution method.
Experiment [29] relates to Candida albicans. As to the kind of experiment: Antifungal activity against Candida albicans ATCC SC5314 assessed as fungal growth inhibition measured after 72 hrs in presence of fluconazole by double dilution method. Particulars: ATCC SC5314, 72 h.
For experiment [30], the system named is Candida tropicalis. Briefly: microbe, parasite or virus in culture. To be noted: ATCC 1369, 72 h.
Description: Antifungal activity against Candida tropicalis ATCC 1369 assessed as fungal growth inhibition measured after 72 hrs in presence of fluconazole by double dilution method
Experiment [31] deals with Candida albicans. As to the kind of experiment: microbe, parasite or virus in culture. To be noted: Candida albicans, 901, 72 h.
Description: Antifungal activity against fluconazole- resistant Candida albicans 901 assessed as fungal growth inhibition measured after 72 hrs in presence of fluconazole by double dilution method
Experiment [32] relates to Candida albicans. Briefly: microbe, parasite or virus in culture. To be noted: Candida albicans, 904, 72 h.
Description: Antifungal activity against fluconazole- resistant Candida albicans 904 assessed as fungal growth inhibition measured after 72 hrs in presence of fluconazole by double dilution method
For experiment [33], the system named is Pichia kudriavzevii. Briefly: microbe, parasite or virus in culture. Particulars: ATCC 6258, 72 h.
Description: Antifungal activity against Candida krusei ATCC 6258 assessed as fungal growth inhibition measured after 72 hrs in presence of fluconazole by double dilution method

≈ marks a conversion by molar mass, not a printed value. Calls of active or inactive are those of the source. The rule behind the calls is not given here.

Consider `COC(=O)[C@@H](Cn1cncn1)NC(=O)[C@@H](C)c1cccc(C(=O)c2ccccc2)c1`, for which the Activity in the experiment on Candida albicans [1] is reported as 0.26%; in the experiment on Candida albicans [3], 54.56%; with Candida albicans [7] it was 34.69%; in the experiment with Candida albicans [8], 0.54%; in the experiment with Candida albicans [9], 0.9%; in the experiment with Candida albicans [10], 0.9%. In addition, in the experiment on Candida albicans [11], the Activity came out at 64.15%. For the same compound, the MIC50 in the experiment with Candida tropicalis [2] came out at 1 µg/mL (≈ 2.46 µM); in the experiment with Pichia kudriavzevii [4], 0.5 µg/mL (≈ 1.23 µM); in the experiment on Cryptococcus neoformans [5], 1 µg/mL (≈ 2.46 µM); with Candida albicans [6], 0.5 µg/mL (≈ 1.23 µM); in the experiment on Aspergillus fumigatus [12], 2 µg/mL (≈ 4.92 µM).
What is called IC50 is the midpoint of a concentration-inhibition curve. `CC(C)OC(=O)[C@@H](Cn1cncn1)NC(=O)[C@@H](C)c1cccc(C(=O)c2ccccc2)c1`: the MIC50 with Candida tropicalis [2] was 0.5 µg/mL (≈ 1.15 µM); in the experiment on Pichia kudriavzevii [4] it was 0.5 µg/mL (≈ 1.15 µM); in the experiment on Candida albicans [15], above 8 µg/mL; in the experiment on Cryptococcus neoformans [5] it was 0.25 µg/mL (≈ 0.575 µM); in the experiment on Candida albicans [6], 0.25 µg/mL (≈ 0.575 µM); in the experiment with Candida albicans [19] it was 4 µg/mL (≈ 9.21 µM). The MIC50 with Candida albicans [21] was above 8 µg/mL; in the experiment on Aspergillus fumigatus [12], 4 µg/mL (≈ 9.21 µM); in the experiment with Candida albicans [22], 4 µg/mL (≈ 9.21 µM); in the experiment with Candida albicans [23] it was 4 µg/mL (≈ 9.21 µM). Besides, the result in the experiment with Candida albicans [13] was Active. Moreover, the IC50 in experiment [14] was above 50 µM; in [16] it was 3.41 µM; in experiment [18], 0.2 µM. In addition, the values for the Activity with Candida albicans [17] and in the experiment on Candida albicans [20] were 141% and 84%, respectively.
With `COc1ccc2cc([C@H](C)C(=O)O)ccc2c1` [NAPROXEN], the MIC50 with Candida albicans [24] turned out to be 4 µg/mL (≈ 17.4 µM); in the experiment on Candida albicans [25], 4 µg/mL; in the experiment on Aspergillus fumigatus [26], 4 µg/mL; against Cryptococcus neoformans [27], 0.25 µg/mL (≈ 1.09 µM); in the experiment with Candida albicans [28], 2 µg/mL; in the experiment with Candida albicans [29], 0.25 µg/mL. Besides, the MIC50 in the experiment on Candida tropicalis [30] turned out to be 0.5 µg/mL (≈ 2.17 µM); in the experiment on Candida albicans [31], 4 µg/mL (≈ 17.4 µM); in the experiment with Candida albicans [32], 2 µg/mL (≈ 8.69 µM); in the experiment with Pichia kudriavzevii [33], 1 µg/mL (≈ 4.34 µM). This compound also yielded an IC50 in experiment [16] of 2.39 µM.

The values are drawn from ChEMBL document CHEMBL5113529, “Design, Synthesis, and Biological Evaluation of Dual-Target COX-2/CYP51 Inhibitors for the Treatment of Fungal Infectious Diseases” (J Med Chem, 2022).
